Converted amounts (≈) assume the structure as drawn. “And” between values parts separate entries of the source, which are not always exact repeats. Identical values can stand only once. Counter-ions that a name gives are not always drawn. Like-named read-outs stand apart in the source and are kept apart here.
Tests used:
[1] = system: E. cloacae 0002; experiment: Microbroth MIC, E. cloacae 0002; assay type: cell-based, Enterobacter cloacae
[2] = system: E. cloacae 4182; experiment: Microbroth MIC, E. cloacae 4182; assay type: cell-based; details: Enterobacter cloacae; E. cloacae 4182 (De-repressed AmpC)
[3] = system: E. cloacae 4184; experiment: Microbroth MIC, E. cloacae 4184; assay type: cell-based; details: Enterobacter cloacae; E. cloacae 4184 (De-repressed AmpC)
[4] = system: E. cloacae 0060; experiment: Microbroth MIC, E. cloacae 0060; assay type: cell-based; details: Enterobacter cloacae; E. cloacae 0060 (cAmpC)
[5] = system: E. cloacae 0065; experiment: Microbroth MIC, E. cloacae 0065; assay type: cell-based; details: Enterobacter cloacae; E. cloacae 0065 (cAmpC)
[6] = system: E. coli ATCC 25922; experiment: Microbroth MIC, E. coli ATCC 25922; assay type: cell-based; details: Escherichia coli, ATCC25922
[7] = system: E. coli ATCC 35218; experiment: Microbroth MIC, E. coli ATCC 35218; assay type: cell-based; details: Escherichia coli, ATCC35218; E. coli ATCC 35218 (TEM-1 Quality Control Strain)
[8] = system: E. coli 470-21711; experiment: Microbroth MIC, E. coli 470-21711; assay type: cell-based; details: Escherichia coli, 47021711; E. coli 470-21711 (CTX-M-15)
[9] = system: E. coli 136-4643; experiment: Microbroth MIC, E. coli 136-4643; assay type: cell-based; details: Escherichia coli, 1364643; E. coli 136-4643 (CTX-M-15)
[10] = system: K. pneumoniae 27144; experiment: Microbroth MIC, K. pneumoniae 27144; assay type: cell-based; details: Klebsiella pneumoniae; K. pneumoniae 27144 (CTX-M-15, OXA-1, OXA-48, SHV-11, TEM-1)
[11] = system: K. pneumoniae 4582; experiment: Microbroth MIC, K. pneumoniae 4582; assay type: cell-based, Klebsiella pneumoniae
[12] = system: K. pneumoniae 79; experiment: Microbroth MIC, K. pneumoniae 79; assay type: cell-based, Klebsiella pneumoniae
[13] = system: K. pneumoniae 908; experiment: Microbroth MIC, K. pneumoniae 908; assay type: cell-based, Klebsiella pneumoniae
[14] = system: K. pneumoniae ATCC BAA-1705; experiment: Microbroth MIC, K. pneumoniae ATCC BAA-1705; assay type: cell-based; details: Klebsiella pneumoniae
[15] = system: K. pneumoniae 700603; experiment: Microbroth MIC, K. pneumoniae 700603; assay type: cell-based; details: Klebsiella pneumoniae; K. pneumoniae 700603 (SHV-18)
[16] = system: K. pneumoniae 19701; experiment: Microbroth MIC, K. pneumoniae 19701; assay type: cell-based, Klebsiella pneumoniae
[17] = system: E. cloacae 0002; experiment: Agar MIC, E. cloacae 0002; assay type: cell-based, Enterobacter cloacae
[18] = system: E. cloacae 4182; experiment: Agar MIC, E. cloacae 4182; assay type: cell-based; details: Enterobacter cloacae; E. cloacae 4182 (De-repressed AmpC)
[19] = system: E. cloacae 4184; experiment: Agar MIC, E. cloacae 4184; assay type: cell-based; details: Enterobacter cloacae; E. cloacae 4184 (De-repressed AmpC)
[20] = system: E. cloacae 0060; experiment: Agar MIC, E. cloacae 0060; assay type: cell-based; details: Enterobacter cloacae; E. cloacae 0060 (cAmpC)
[21] = system: E. cloacae 0065; experiment: Agar MIC, E. cloacae 0065; assay type: cell-based; details: Enterobacter cloacae; E. cloacae 0065 (cAmpC)
[22] = system: E. coli ATCC 25922; experiment: Agar MIC, E. coli ATCC 25922; assay type: cell-based; details: Escherichia coli, ATCC25922; E. coli ATCC 25922 (Wildtype)
[23] = system: E. coli ATCC 35218; experiment: Agar MIC, E. coli ATCC 35218; assay type: cell-based; details: Escherichia coli, ATCC35218; E. coli ATCC 35218 (TEM-1 Quality Control Strain)
[24] = system: E. coli 470-21711; experiment: Agar MIC, E. coli 470-21711; assay type: cell-based; details: Escherichia coli, 47021711; E. coli 470-21711 (CTX-M-15)
[25] = system: E. coli 136-4643; experiment: Agar MIC, E. coli 136-4643; assay type: cell-based; details: Escherichia coli, 1364643; E. coli 136-4643 (CTX-M-15)
[26] = system: K. pneumoniae 15160; experiment: Agar MIC, K. pneumoniae 15160; assay type: cell-based; details: Klebsiella pneumoniae; K. pneumoniae 15160 (CTX-M-15, CTX-M-2, OXA-10, OXA-1, SHV-11, TEM-1)
[27] = system: K. pneumoniae 27144; experiment: Agar MIC, K. pneumoniae 27144; assay type: cell-based; details: Klebsiella pneumoniae; K. pneumoniae 27144 (CTX-M-15, OXA-1, OXA-48, SHV-11, TEM-1)
[28] = system: K. pneumoniae 4582; experiment: Agar MIC, K. pneumoniae 4582; assay type: cell-based, Klebsiella pneumoniae
[29] = system: K. pneumoniae 79; experiment: Agar MIC, K. pneumoniae 79; assay type: cell-based, Klebsiella pneumoniae
[30] = system: K. pneumoniae 908; experiment: Agar MIC, K. pneumoniae 908; assay type: cell-based, Klebsiella pneumoniae
[31] = system: K. pneumoniae 19701; experiment: Agar MIC, K. pneumoniae 19701; assay type: cell-based, Klebsiella pneumoniae
[32] = system: K. pneumoniae 700603; experiment: Agar MIC, K. pneumoniae 700603; assay type: cell-based; details: Klebsiella pneumoniae; K. pneumoniae 700603 (SHV-18)
[33] = human; cited from earlier work
[34] = cited from earlier work
[35] = system: K. pneumoniae 15160; experiment: Microbroth MIC, K. pneumoniae 15160; assay type: cell-based; details: Klebsiella pneumoniae; K. pneumoniae 15160 (CTX-M-15, CTX-M-2, OXA-10, OXA-1, SHV-11, TEM-1)
[36] = system: E. coli ATCC 25922; experiment: One-compartment in vitro infection (chemostat) model, E. coli ATCC 25922; assay type: cell-based, Escherichia coli
[37] = E. coli ATCC 25922 (Wildtype), read-out: Microbroth MIC

Row | Compound | MIC [2] [µg/mL] | MIC [3] [µg/mL] | MIC [4] [µg/mL] | MIC [5] [µg/mL] | MIC [6, 37] [µg/mL] | MIC [7] [µg/mL] | MIC [8] [µg/mL] | MIC [9] [µg/mL] | MIC [10] [µg/mL] | MIC [15] [µg/mL] | MIC [18] [µg/mL] | MIC [19] [µg/mL] | MIC [20] [µg/mL] | MIC [21] [µg/mL] | MIC [22] [µg/mL] | MIC [23] [µg/mL] | MIC [24] [µg/mL] | MIC [25] [µg/mL] | MIC [26] [µg/mL] | MIC [27] [µg/mL] | other results
1 | NC(=O)[C@@H]1CC[C@@H]2CN1C(=O)N2OS(=O)(=O)O [avibactam, [2S,5R]-2-carbamoyl-7-oxo-1,6-diazabicyclo[3.2.1]octan-6-yl hydrogen sulfate] | 32 | 32 | 32 | 16 | 16 | 16 | 16 | 256 | 512 | 64 | 16 | 16 | 16 | 8 | 8 | 8 | 8 | 8 | 16 | 64 | MIC ([1]; Enterobacter cloacae, E. cloacae 0002 (KPC-3, OXA-9, TEM-1A), read-out: Microbroth MIC): 32 µg/mL; Microbroth MIC ([11]; K. pneumoniae 4582 (KPC-3), listed as AVI): 64 µg/mL and 32 µg/mL; Microbroth MIC ([12]; K. pneumoniae 79 (KPC-3, FOX-5, TEM-1 SHV-11), listed as AVI): 16 µg/mL and 32 µg/mL; MIC ([13]; Klebsiella pneumoniae, K. pneumoniae 908 (KPC-2, SHV-27, TEM-1), read-out: Microbroth MIC): 128 µg/mL; MIC ([14]; ATCCBAA1705, K. pneumoniae ATCC BAA-1705 (KPC-2), read-out: Microbroth MIC): 16 µg/mL; MIC ([16]; Klebsiella pneumoniae, K. pneumoniae 19701 (KPC-2), read-out: Microbroth MIC): > 512 µg/mL; MIC ([17]; Enterobacter cloacae, E. cloacae 0002 (KPC-3, OXA-9, TEM-1A), read-out: agar MIC): 16 µg/mL; MIC ([28]; Klebsiella pneumoniae, K. pneumoniae 4582 (KPC-3), read-out: agar MIC): 8 µg/mL; MIC ([29]; Klebsiella pneumoniae, K. pneumoniae 79 (KPC-3, FOX-5, TEM-1 SHV-11), read-out: agar MIC): 16 µg/mL; MIC ([30]; Klebsiella pneumoniae, K. pneumoniae 908 (KPC-2, SHV-27, TEM-1), read-out: agar MIC): 128 µg/mL; MIC ([31]; Klebsiella pneumoniae, K. pneumoniae 19701 (KPC-2), read-out: agar MIC): 32 µg/mL; MIC [32]: 64 µg/mL; oral bioavailability [33]: about 6 % F; plasma protein binding ([34]; assumed for free-drug profiles): 6.95%
2 | Nc1nc(/C(=C/CC(=O)O)C(=O)N[C@@H]2C(=O)N3C(C(=O)O)=CCS[C@H]23)cs1 [ceftibuten, (6R,7R)-7-((Z)-2-(2-amino-4-thiazolyl)-4-carboxycrotonamido)-8-oxo-5-thia-1-azabicyclo(4.2.0)oct-2-ene-2-carboxylic acid] | > 64 | > 64 | > 64 | > 64 | 0.5 (≈ 1.22 µM) | 0.125 (≈ 0.305 µM) | 64 (≈ 156 µM) | 32 (≈ 78 µM) | 64 (≈ 156 µM) | 0.5 (≈ 1.22 µM) | > 64 | > 64 | > 64 | > 64 | 0.5 (≈ 1.22 µM) | 0.125 (≈ 0.305 µM) | 32 (≈ 78 µM) | 8 (≈ 19.5 µM) | 32 (≈ 78 µM) | 32 (≈ 78 µM) | MIC ([1]; Enterobacter cloacae, 0002, read-out: Microbroth MIC): 32 µg/mL (≈ 78 µM); MIC ([6]; E. coli ATCC 25922 (Wild type), read-out: MIC): 0.5 µg/mL (≈ 1.22 µM); MIC [35]: 64 µg/mL (≈ 156 µM); MIC ([11]; Klebsiella pneumoniae, 4582, read-out: Microbroth MIC): 32 µg/mL (≈ 78 µM); MIC ([12]; Klebsiella pneumoniae, 79, read-out: Microbroth MIC): > 64 µg/mL; MIC ([13]; Klebsiella pneumoniae, 908, read-out: Microbroth MIC): 32 µg/mL (≈ 78 µM); MIC ([14]; ATCCBAA1705, read-out: Microbroth MIC): 16 µg/mL (≈ 39 µM); MIC ([16]; Klebsiella pneumoniae, 19701, read-out: Microbroth MIC): 64 µg/mL (≈ 156 µM); MIC ([17]; Enterobacter cloacae, 0002, read-out: agar MIC): 16 µg/mL (≈ 39 µM); MIC ([28]; Klebsiella pneumoniae, 4582, read-out: agar MIC): 16 µg/mL (≈ 39 µM); MIC ([29]; Klebsiella pneumoniae, 79, read-out: agar MIC): 64 µg/mL (≈ 156 µM); MIC ([30]; Klebsiella pneumoniae, 908, read-out: agar MIC): 32 µg/mL (≈ 78 µM); MIC ([31]; Klebsiella pneumoniae, 19701, read-out: agar MIC): 32 µg/mL (≈ 78 µM); MIC [32]: 0.5 µg/mL (≈ 1.22 µM); Reduction (bacterial burden) ([36]; Ceftibuten 267 mg TID, Avibactam 0 mg TID): 1-log; ceftibuten % T>MIC required to achieve net bacterial stasis ([36]; administered every 8 hours): approximately 45%; bacterial burden response at 24 hours ([36]; ceftibuten 3.75 mg to 75 mg q8h): net bacterial stasis; bacterial burden response at 24 hours ([36]; ceftibuten 12.5 mg q8h): treatment failure; bacterial burden response at 24 hours ([36]; ceftibuten 100 mg and 267 mg q8h): reductions in bacterial burden; plasma protein binding ([34]; plasma): 65.0%

— patent US20210060033A1, “ORALLY ADMINISTERED COMBINATIONS OF BETA-LACTAM ANTIBIOTICS AND AVIBACTAM DERIVATIVES FOR TREATING BACTERIAL INFECTIONS” (priority 2019, published 2021)
